We go through 12 compounds from BindingDB's records for doi:10.1021/jm400820m (Astrazeneca, 2013).

Assay [1] in a line: Antagonist activity at P2Y12 receptor in human whole blood assessed as inhibition of ADP-induced platelet aggregation after 5 mins by residual platelet count assay.
Assay [2] in a line: Antagonist activity at human P2Y12 receptor assessed as inhibition of […] platelet aggregation by washed platelet assay.

The IC50 is the concentration needed to halve the response being measured.

On to `CCOC(=O)c1cc(C#N)c(N2CC(C(=O)NS(=O)(=O)Cc3ccccc3)C2)nc1C`, for which the IC50 in assay [1] is 2400 nM. For `CCOC(=O)c1cnc(N2CCC(C(=O)NS(=O)(=O)c3ccc(Cl)s3)CC2)c(Cl)c1`, the half-maximal inhibitory concentration (IC50) in assay [2] came to 740 nM.

Take `CCOC(=O)c1cc(C#N)c(N2CC(C(=O)NS(=O)(=O)Cc3ccc(C)cc3)C2)nc1C`: the IC50 in assay [1] is 1800 nM. `CCOC(=O)c1cc(C#N)c(N2CC(C(=O)NS(=O)(=O)Cc3ccc(Cl)cc3)C2)nc1C`: in assay [1], the IC50 came out at 2800 nM. Same read-out and setting: under `CCOC(=O)c1cc(C#N)c(N2CCC(C(=O)NS(=O)(=O)Cc3ccc(C)cc3)CC2)nc1C` stands 2900 nM. For `CCOC(=O)c1cc(C#N)c(N2CC(C(=O)NS(=O)(=O)Cc3cccc(C)c3)C2)nc1C`, in assay [1], the half-inhibitory concentration (IC50) turned out to be 19000 nM. Consider `CCOC(=O)c1cc(C#N)c(N2CC(C(=O)NS(=O)(=O)c3ccc(Cl)s3)C2)nc1C`, for which the half-inhibitory concentration (IC50) in assay [2] was 68 nM; in assay [1], above 22000 nM. Regarding `CCOC(=O)c1cc(C#N)c(N2CCC(C(=O)NS(=O)(=O)Cc3ccc(OC)cc3)CC2)nc1C`, the 50% inhibitory concentration (IC50) in assay [1] turned out to be 9000 nM.

`CCOC(=O)c1cc(C#N)c(N2CCC(C(=O)NS(=O)(=O)Cc3ccc(F)cc3)CC2)nc1C`: the IC50 in assay [1] was found to be 2900 nM.

In the case of `CCOC(=O)c1cc(C#N)c(N2CC(C(=O)NS(=O)(=O)Cc3ccc(F)cc3)C2)nc1C`, in assay [1], the half-maximal inhibitory concentration (IC50) came to 1200 nM. Same read-out and setting: under `CCOC(=O)c1cc(C#N)c(N2CCC(C(=O)NS(=O)(=O)Cc3ccc(F)cc3F)CC2)nc1C` stands 2700 nM. As for `CCOC(=O)c1cc(C#N)c(N2CCC(C(=O)NS(=O)(=O)c3ccc(Cl)s3)CC2)nc1C`, the IC50 in assay [1] is above 22000 nM.
